Reference: ChEMBL document CHEMBL1908284, “Rational use of in vitro P-glycoprotein assays in drug discovery” (J Pharmacol Exp Ther, 2001)
Starred links: 1 amine or outer side, 2 acyl side, 3 side chain; linkers in the order of their positions; H or OH if unused. Positions of bridges follow the written chain, without caps; N, C: chain ends. Non-standard residues stand in square brackets, D forms with d. Residues, ends and D or L forms follow the SMILES beside them. Chains are numbered I, II in the order given. Actinocin(9to1) = Cc1c2oc3c(C)ccc(C(=O)[*:1])c3nc-2c(C(=O)[*:2])c(N)c1=O; NMeV = CN[C@H](C(=O)O)C(C)C; Sar = CNCC(=O)O

Assays:
[1] = target: T1, ATP-dependent translocase ABCB1 (MDR1) (Homo sapiens, UniProt P08183); experiment: in vitro; settings: dog
T1 sequence (P08183 whole entry): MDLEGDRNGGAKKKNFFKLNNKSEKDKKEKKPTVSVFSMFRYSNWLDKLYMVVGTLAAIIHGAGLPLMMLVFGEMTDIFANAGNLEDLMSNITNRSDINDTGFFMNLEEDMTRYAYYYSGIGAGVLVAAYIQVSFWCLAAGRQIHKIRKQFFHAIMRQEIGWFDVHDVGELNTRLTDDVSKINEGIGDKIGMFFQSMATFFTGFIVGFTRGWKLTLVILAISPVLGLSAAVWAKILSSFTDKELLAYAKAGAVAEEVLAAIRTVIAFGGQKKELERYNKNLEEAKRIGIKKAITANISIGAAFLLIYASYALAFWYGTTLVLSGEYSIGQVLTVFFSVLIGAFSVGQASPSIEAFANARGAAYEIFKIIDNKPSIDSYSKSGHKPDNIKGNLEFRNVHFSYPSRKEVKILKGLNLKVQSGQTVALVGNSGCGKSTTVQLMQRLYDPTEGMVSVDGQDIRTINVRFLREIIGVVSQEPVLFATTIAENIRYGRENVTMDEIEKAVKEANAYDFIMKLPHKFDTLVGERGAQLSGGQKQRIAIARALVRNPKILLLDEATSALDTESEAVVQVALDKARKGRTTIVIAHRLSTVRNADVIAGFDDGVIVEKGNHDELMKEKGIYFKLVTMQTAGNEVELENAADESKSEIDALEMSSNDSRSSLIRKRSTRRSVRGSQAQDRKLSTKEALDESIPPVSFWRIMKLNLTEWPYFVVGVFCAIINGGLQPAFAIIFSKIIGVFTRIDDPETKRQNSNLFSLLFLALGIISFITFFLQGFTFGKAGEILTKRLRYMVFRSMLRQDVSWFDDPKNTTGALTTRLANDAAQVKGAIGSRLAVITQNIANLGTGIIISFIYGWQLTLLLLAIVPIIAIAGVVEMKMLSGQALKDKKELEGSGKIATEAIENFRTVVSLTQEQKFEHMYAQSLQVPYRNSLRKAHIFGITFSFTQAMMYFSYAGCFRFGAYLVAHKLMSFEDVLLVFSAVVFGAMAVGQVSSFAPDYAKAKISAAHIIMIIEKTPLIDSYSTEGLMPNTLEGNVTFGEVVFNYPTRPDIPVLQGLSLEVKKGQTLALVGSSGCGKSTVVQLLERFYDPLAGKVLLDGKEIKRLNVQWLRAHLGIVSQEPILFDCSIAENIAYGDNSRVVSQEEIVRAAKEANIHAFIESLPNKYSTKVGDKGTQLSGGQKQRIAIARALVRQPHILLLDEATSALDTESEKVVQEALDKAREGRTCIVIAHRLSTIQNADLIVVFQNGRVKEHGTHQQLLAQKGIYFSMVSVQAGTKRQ

[2] = target: T1, ATP-dependent translocase ABCB1 (MDR1); experiment: in vitro; settings: dog; remark: listed apart in the source
[3] = target: T1, ATP-dependent translocase ABCB1 (MDR1); experiment: in vitro; settings: dog; remark: listed apart in the source
[4] = target: T2, ATP-dependent translocase ABCB1 (Homo sapiens, UniProt P08183); settings: spodoptera frugiperda, sf9, 20 µM;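 note: Compound-stimulated ATPase activity measured in membrane preparations of MDR1-expressing Sf9 cells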
T2 sequence (P08183 whole entry): as above

[5] = target: T2, ATP-dependent translocase ABCB1; experiment: TP_TRANSPORTER: ATP hydrolysis in MDR1-expressing Sf9 cells; assay type: functional

Compound | efflux ratio ([1]; MDCK-MDR1, Ratio_Papp) | Papp A→B ([2]; MDCK-MDR1, Papp) | Papp B→A ([3]; MDCK-MDR1, Papp) | Ratio_ATPase activity [4] | Activity [5] | efflux ratio ([1]; MDCK-MDR1) | Papp A→B ([2]; MDCK-MDR1) | Papp B→A ([3]; MDCK-MDR1)
CC(C)(C)NC(=O)[C@@H]1C[C@@H]2CCCC[C@@H]2CN1C[C@@H](O)[C@H](Cc1ccccc1)NC(=O)[C@H](CC(N)=O)NC(=O)c1ccc2ccccc2n1 | 165 | 0.301 ×10⁻⁶ cm/s | 49.5 ×10⁻⁶ cm/s | 7.11 |  |  |  | 
CNS(=O)(=O)Cc1ccc2[nH]cc(CCN(C)C)c2c1 | 1.37 | 0.953 ×10⁻⁶ cm/s | 1.3 ×10⁻⁶ cm/s | 1.23 |  |  |  | 
CN1CCC[C@@H]1Cc1c[nH]c2ccc(CCS(=O)(=O)c3ccccc3)cc12 | 31.5 | 1.84 ×10⁻⁶ cm/s | 57.8 ×10⁻⁶ cm/s | 2.22 | substrate [+] |  |  | 
CCOc1ccc(-c2nc3cc(-c4nc5cc(N6CCN(C)CC6)ccc5[nH]4)ccc3[nH]2)cc1 |  |  |  | 0.86 |  | 7.75 | 0.335 ×10⁻⁶ cm/s | 2.6 ×10⁻⁶ cm/s
COc1cc2c(cc1OC)CN(CCc1ccc(NC(=O)c3cccc4c(=O)c5cccc(OC)c5[nH]c34)cc1)CC2 |  | 0.212 ×10⁻⁶ cm/s | 1.86 ×10⁻⁶ cm/s |  |  |  |  | 
CC(C)(C)NC(=O)[C@@H]1CN(Cc2cccnc2)CCN1C[C@@H](O)C[C@@H](Cc1ccccc1)C(=O)N[C@H]1c2ccccc2C[C@H]1O.O | 20.3 | 0.869 ×10⁻⁶ cm/s | 17.6 ×10⁻⁶ cm/s | 9.59 | substrate [+] |  |  | 
Cc1c(O)cccc1C(=O)N[C@@H](CSc1ccccc1)[C@H](O)CN1C[C@H]2CCCC[C@H]2C[C@H]1C(=O)NC(C)(C)C | 8.86 | 3.81 ×10⁻⁶ cm/s | 33.8 ×10⁻⁶ cm/s | 5.21 |  |  |  | 
Nc1nc(N)c2nc(-c3ccccc3)c(N)nc2n1 | 0.99 | 18.5 ×10⁻⁶ cm/s | 18.4 ×10⁻⁶ cm/s | 1.12 |  |  |  | 
CN(C)CCC(c1ccc(Cl)cc1)c1ccccn1 (racemic) [CHLORPHENIRAMINE] | 1.14 | 56.2 ×10⁻⁶ cm/s | 64.2 ×10⁻⁶ cm/s | 0.97 |  |  |  | 
NC12CC3CC(CC(C3)C1)C2 [AMANTADINE] |  | 18.6 ×10⁻⁶ cm/s | 15.7 ×10⁻⁶ cm/s |  |  |  |  | 
CCN(CC)CCCC(C)Nc1ccnc2cc(Cl)ccc12 (stereo not drawn) [CHLOROQUINE] | 3.83 | 4.49 ×10⁻⁶ cm/s | 17.2 ×10⁻⁶ cm/s | 0.77 | is not a substrate [-] |  |  | 
CN(C)CCCN1c2ccccc2Sc2ccc(Cl)cc21 [CHLORPROMAZINE] | 1.09 | 43.8 ×10⁻⁶ cm/s | 47.7 ×10⁻⁶ cm/s | 2.42 |  |  |  | 
CN/C(=N/CCSCc1nc[nH]c1C)NC#N [CIMETIDINE] |  |  |  | 1.31 |  | 2.19 | 1.23 ×10⁻⁶ cm/s | 2.69 ×10⁻⁶ cm/s
CC[C@H]1OC(=O)[C@H](C)[C@@H](O[C@H]2C[C@@](C)(OC)[C@@H](O)[C@H](C)O2)[C@H](C)[C@@H](O[C@@H]2O[C@H](C)C[C@H](N(C)C)[C@H]2O)[C@](C)(OC)C[C@@H](C)C(=O)[C@H](C)[C@@H](O)[C@]1(C)O [CLARITHROMYCIN] | 31.3 | 1.08 ×10⁻⁶ cm/s | 33.6 ×10⁻⁶ cm/s | 3.55 | substrate [+] |  |  | 
COc1cc2c(c(OC)c1OC)-c1ccc(OC)c(=O)cc1[C@@H](NC(C)=O)CC2 [COLCHICINE] |  |  |  | 1.23 | is not a substrate [-] | 11.3 | 1.79 ×10⁻⁶ cm/s | 20.2 ×10⁻⁶ cm/s
Cc1c2oc3c(C)ccc(C(=O)N[C@@H]4C(=O)N[C@H](C(C)C)C(=O)N5CCC[C@H]5C(=O)N(C)CC(=O)N(C)[C@@H](C(C)C)C(=O)O[C@@H]4C)c3nc-2c(C(=O)N[C@@H]2C(=O)N[C@H](C(C)C)C(=O)N3CCC[C@H]3C(=O)N(C)CC(=O)N(C)[C@@H](C(C)C)C(=O)O[C@@H]2C)c(N)c1=O [DACTINOMYCIN] (I: T[dV]P[Sar][NMeV] / II: T[dV]P[Sar][NMeV]; ester I:1-I:C, II:1-II:C; linker I:N-II:N via Actinocin(9to1)) | > 80 | < 0.021 ×10⁻⁶ cm/s | 1.6 ×10⁻⁶ cm/s | 1.2 | is not a substrate [-] |  |  | 
COc1cccc2c1C(=O)c1c(O)c3c(c(O)c1C2=O)C[C@@](O)(C(C)=O)C[C@@H]3O[C@H]1C[C@H](N)[C@H](O)[C@H](C)O1 [DAUNORUBICIN] | 14.2 | 0.547 ×10⁻⁶ cm/s | 7.77 ×10⁻⁶ cm/s | 1.69 | is not a substrate [-] |  |  | 
C[C@@H]1C[C@H]2[C@@H]3CCC4=CC(=O)C=C[C@]4(C)[C@@]3(F)[C@@H](O)C[C@]2(C)[C@@]1(O)C(=O)CO [DEXAMETHASONE] | 12.4 | 4.35 ×10⁻⁶ cm/s | 53.7 ×10⁻⁶ cm/s | 1.15 |  |  |  | 
COc1ccc([C@@H]2Sc3ccccc3N(CCN(C)C)C(=O)[C@@H]2OC(C)=O)cc1 [DILTIAZEM] | 1.64 | 41.3 ×10⁻⁶ cm/s | 67.6 ×10⁻⁶ cm/s | 2.64 |  |  |  | 
COc1cccc2c1C(=O)c1c(O)c3c(c(O)c1C2=O)C[C@@](O)(C(=O)CO)C[C@@H]3O[C@H]1C[C@H](N)[C@H](O)[C@H](C)O1 [DOXORUBICIN] | 0.67 | 1.45 ×10⁻⁶ cm/s | 0.973 ×10⁻⁶ cm/s | 0.95 |  |  |  | 

Compound | efflux ratio ([1]; MDCK-MDR1, Ratio_Papp) | Papp A→B ([2]; MDCK-MDR1, Papp) | Papp B→A ([3]; MDCK-MDR1, Papp) | Ratio_ATPase activity [4] | Activity [5] | efflux ratio ([1]; MDCK-MDR1) | Papp A→B ([2]; MDCK-MDR1) | Papp B→A ([3]; MDCK-MDR1)
CC[C@H]1OC(=O)[C@H](C)[C@@H](O[C@H]2C[C@@](C)(OC)[C@@H](O)[C@H](C)O2)[C@H](C)[C@@H](O[C@@H]2O[C@H](C)C[C@H](N(C)C)[C@H]2O)[C@](C)(O)C[C@@H](C)C(=O)[C@H](C)[C@@H](O)[C@]1(C)O [ERYTHROMYCIN] |  | 0.094 ×10⁻⁶ cm/s | 1.35 ×10⁻⁶ cm/s |  |  |  |  | 
COc1cc([C@@H]2c3cc4c(cc3[C@@H](O[C@@H]3O[C@@H]5CO[C@@H](C)O[C@H]5[C@H](O)[C@H]3O)[C@H]3COC(=O)[C@H]23)OCO4)cc(OC)c1O [ETOPOSIDE] |  | 2.14 ×10⁻⁶ cm/s | 6.06 ×10⁻⁶ cm/s |  |  |  |  | 
CCC(C)n1ncn(-c2ccc(N3CCN(c4ccc(OCC5COC(Cn6cncn6)(c6ccc(Cl)cc6Cl)O5)cc4)CC3)cc2)c1=O (stereo not drawn) [ITRACONAZOLE] | 0.97 | 57.1 ×10⁻⁶ cm/s | 55.2 ×10⁻⁶ cm/s | 1.2 |  |  |  | 
CN(C)C(=O)C(CCN1CCC(O)(c2ccc(Cl)cc2)CC1)(c1ccccc1)c1ccccc1 [LOPERAMIDE] |  |  |  | 3.75 |  | 7.77 | 9.98 ×10⁻⁶ cm/s | 77.6 ×10⁻⁶ cm/s
COC(=O)Nc1nc2ccc(C(=O)c3ccccc3)cc2[nH]1 [MEBENDAZOLE] | 0.91 | 71.4 ×10⁻⁶ cm/s | 64.8 ×10⁻⁶ cm/s | 2 | substrate [+] |  |  | 
CN(Cc1cnc2nc(N)nc(N)c2n1)c1ccc(C(=O)N[C@@H](CCC(=O)O)C(=O)O)cc1 [METHOTREXATE] | 0.67 | 1.05 ×10⁻⁶ cm/s | 0.706 ×10⁻⁶ cm/s | 0.91 |  |  |  | 
O=C1c2c(O)ccc(O)c2C(=O)c2c(NCCNCCO)ccc(NCCNCCO)c21 [MITOXANTRONE] |  | 0.191 ×10⁻⁶ cm/s | 0.644 ×10⁻⁶ cm/s |  |  |  |  | 
CC[C@@]1([C@@H]2O[C@@H]([C@H]3O[C@@](O)(CO)[C@H](C)C[C@@H]3C)C[C@@H]2C)CC[C@H]([C@]2(C)CC[C@]3(C[C@H](O)[C@@H](C)[C@@H]([C@@H](C)[C@@H](OC)[C@H](C)C(=O)O)O3)O2)O1 [MONENSIN] |  |  |  | 6.71 |  | 2.88 | 10.2 ×10⁻⁶ cm/s | 29.4 ×10⁻⁶ cm/s
COC(=O)C1=C(C)NC(C)=C(C(=O)OC)C1c1ccccc1[N+](=O)[O-] [NIFEDIPINE] |  |  |  |  | substrate [+] |  |  | 
CC[C@H]1C(=O)Nc2ccc(F)cc2N1C(=O)OC(C)C [OPAVIRALINE] | 0.96 | 75.8 ×10⁻⁶ cm/s | 72.6 ×10⁻⁶ cm/s | 1.02 |  |  |  | 
CC(=O)Nc1ccc(OCC(O)CNC(C)C)cc1 (stereo not drawn) [PRACTOLOL] | 1.32 | 1.24 ×10⁻⁶ cm/s | 1.64 ×10⁻⁶ cm/s | 1.42 |  |  |  | 
COc1cc2nc(N3CCN(C(=O)c4ccco4)CC3)nc(N)c2cc1OC [PRAZOSIN] | 4.63 | 14.3 ×10⁻⁶ cm/s | 66.1 ×10⁻⁶ cm/s | 3.4 |  |  |  | 
CN(C)C(=O)Oc1ccc[n+](C)c1 [PYRIDOSTIGMINE] |  |  |  | 0.89 |  | 1.24 | 1.02 ×10⁻⁶ cm/s | 1.26 ×10⁻⁶ cm/s
C=C[C@H]1C[N@@]2CC[C@H]1C[C@@H]2[C@@H](O)c1ccnc2ccc(OC)cc12 [QUINIDINE] | 27.2 | 3.64 ×10⁻⁶ cm/s | 99 ×10⁻⁶ cm/s | 2.54 |  |  |  | 
CNC(=C[N+](=O)[O-])NCCSCc1ccc(CN(C)C)o1 [RANITIDINE] | 1.35 | 1.44 ×10⁻⁶ cm/s | 1.95 ×10⁻⁶ cm/s | 1.23 |  |  |  | 
COC(=O)[C@H]1[C@H]2C[C@@H]3c4[nH]c5cc(OC)ccc5c4CCN3C[C@H]2C[C@@H](OC(=O)c2cc(OC)c(OC)c(OC)c2)[C@@H]1OC [RESERPINE] | 3.71 | 6.81 ×10⁻⁶ cm/s | 25.3 ×10⁻⁶ cm/s | 3.85 |  |  |  | 
CC(C)(C)c1ccc(C(O)CCCN2CCC(C(O)(c3ccccc3)c3ccccc3)CC2)cc1 (stereo not drawn) [TERFENADINE] |  | 6.56 ×10⁻⁶ cm/s | 30.6 ×10⁻⁶ cm/s |  |  |  |  | 
C[C@]12CC[C@H]3[C@@H](CCC4=CC(=O)CC[C@@]43C)[C@@H]1CC[C@@H]2O [TESTOSTERONE] |  |  |  | 1.32 |  | 0.73 | 91.6 ×10⁻⁶ cm/s | 66.8 ×10⁻⁶ cm/s
CC[C@]1(O)C[C@@H]2CN(CCc3c([nH]c4ccccc34)[C@@](C(=O)OC)(c3cc4c(cc3OC)N(C)[C@H]3[C@@](O)(C(=O)OC)[C@H](OC(C)=O)[C@]5(CC)C=CCN6CC[C@]43[C@@H]65)C2)C1 [VINBLASTINE] | > 23 | < 1 ×10⁻⁶ cm/s | 23.2 ×10⁻⁶ cm/s | 4.31 |  |  |  | 
COC(=O)[C@@H]1[C@H]2C[C@H]3c4[nH]c5ccccc5c4CCN3C[C@@H]2CC[C@@H]1O [YOHIMBINE] | 1.17 | 42.9 ×10⁻⁶ cm/s | 50.1 ×10⁻⁶ cm/s | 1.05 |  |  |  | 
